Source: patent publication US11026426B2, “Oxadiazole and phenol derivatives as antibacterial and/or herbicidal agents” (NORTHERN ILLINOIS RESEARCH FOUNDATION, priority 2017, dated 2021)

Columns and labels:
Micrococcus luteus = assay: Antibacterial preliminary screening ML; type: cell-based; settings: score 0-3; further: key: 0 represents no inhibition; 3 is comparable to commercial antibiotic control
Bacillus cereus = assay: Antibacterial preliminary screening BC; type: cell-based; settings: score 0-3; further: key: 0 represents no inhibition; 3 is comparable to commercial antibiotic control
lettuce seeds = assay: Lettuce leaf assay; type: in vivo; set-up: key: 0 (no effect); 5(complete inhibition or bleaching); settings: ranking 0-5
From the text: The lettuce leaf assay is a qualitative assay used to determine the relative effectiveness of the test compounds at inhibition of germination of seeds and root development as well as causing bleaching of leaves. Isoprenoid synthesis is vital in plants as isoprene-product gibberellins are a class of growth hormones in plants responsible for stimulating cell elongation and division. In addition, some carotenoids are involved in photosynthesis as components of the electron transport chain. MEP pathway inhibitors have the potential to prevent synthesis of these necessary cellular components and growth hormones resulting in inhibition of germination and root development as well as causing chlorosis, or bleaching in the leaves. The lettuce leaf assay, explores the effects of compounds as potential MEP pathway inhibitors by evaluating the effect on bleaching, root development, and germination of lettuce seeds, which all rely on isoprenoid biosynthesis. […] The assay is a qualitative assay and the effects are given rankings from 0 (no effect) to 5 (complete inhibition or bleaching). In this assay, compounds are dissolved in a volatile organic solvent and applied to filter paper in a petri dish. The solvent is allowed to evaporate and lettuce seeds are applied followed by the addition of 5 mL of water to obtain the necessary concentrations. Seeds are allowed to grow and they are observed on day 3 and day 4 for evaluation.

Klebsiella pneumonia = assay: Antibacterial preliminary screening KP; type: cell-based; settings: score 0-3; further: key: 0 represents no inhibition; 3 is comparable to commercial antibiotic control
Mycobacterium smegmatis = assay: Antibacterial preliminary screening MS; type: cell-based; settings: for MS score: score 0-3
AtIspF = AtIspF (Arabidopsis thaliana, UniProt Q9CAK8); assay: University of Hamburg photometric enzymatic inhibition assay AtIspF; type: biochemical; settings: read-out: AtIspF IC50
Method: (§1) Compounds were subjected to a photometric enzymatic assay to test for inhibition of the plant enzymes Arabidopsis thaliana IspD and IspF, and IspE from Lycopersicon esculentum.
The IspF assay mixture conditions were as follows: 100 mM Tris hydrochloride at pH 8.0 with 10 mM MgCl2, 1 mM dithiothreitol, 2.5 mM potassium phosphoenol pyruvate, 2 mM ATP, 1 mM of 4-diphosphocytidyl-2C methylerythritol 2-phosphate, 460 μM NADH, 1.1% (v/v) DMSO, 0.5 U CMP kinase, 2.4 mU IspF, 1 U lactate dehydrogenase, 1 U pyruvate kinase in 180 μL of solution. Solutions were incubated at 27° C. and monitored photometrically.

AtIspD = AtIspD (Arabidopsis thaliana, UniProt P69834); assay: University of Hamburg photometric enzymatic inhibition assay AtIspD; type: biochemical; settings: read-out: AtIspD IC50
Method: as §1
The procedure for AtIspD enzymatic inhibition assay, was performed by making an assay mixture of 100 mM Tris hydrochloride at pH 8.0 with 10 mM MgCl2, 1 mM dithiothreitol, 2.5 mM potassium phosphoenol pyruvate, 2.1 mM CTP, 2 mM ATP, 1 mM of (2R,3S)-2,3-dihydroxy-4-oxopentyl phosphate, 460 μM NADH, 1.1% (v/v) DMSO, 0.4 U IspE, 1 U lactate dehydrogenase, 1 U pyruvate kinase and 2.4 mU IspD in 180 μL of solution. Solutions were incubated at 27° C. and monitored photometrically. By preparing the assay mixture with a large excess of IspE compared to IspD, any inhibition of IspE by the test inhibitor would be insignificant compared to IspD and therefore the rate of the reaction is determined by IspD activity.

Corynebacterium xerosis = assay: Antibacterial preliminary screening CX; type: cell-based; settings: score 0-3; further: key: 0 represents no inhibition; 3 is comparable to commercial antibiotic control
Pseudomonas aeruginosa = assay: Antibacterial preliminary screening PA; type: cell-based; settings: for PA score: score 0-3
[1] = target: Lycopersicon esculentum IspE (LeIspE) (Solanum lycopersicum, UniProt P93841); assay: Thermal shift assay against LeIspE; type: binding
[2] = tested on: Corynebacterium pseudodiphtheriae; assay: Antibacterial preliminary screening CP; type: cell-based; settings: score 0-3;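 further: 0 is no inhibition and 3 matches the commercial antibiotic control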
[3] = tested on: Burkholderia thailandensis; type: cell-based; settings: preliminary screening; for BT score: score 0-3
Escherichia coli = assay: Antibacterial preliminary screening EC; type: cell-based; settings: score 0-3
[4] = target: T1, Mycobacterium tuberculosis IspD (MtIspD) (Mycobacterium tuberculosis, UniProt P9WKG9); assay: Thermal shift assay against MtIspD; type: binding
T1 sequence (P9WKG9 1-231): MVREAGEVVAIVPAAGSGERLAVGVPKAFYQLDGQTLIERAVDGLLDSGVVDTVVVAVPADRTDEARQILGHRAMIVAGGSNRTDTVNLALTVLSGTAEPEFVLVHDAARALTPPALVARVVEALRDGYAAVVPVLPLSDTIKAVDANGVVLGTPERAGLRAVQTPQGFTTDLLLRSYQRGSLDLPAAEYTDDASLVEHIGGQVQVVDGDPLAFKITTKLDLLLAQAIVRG

LeIspE = LeIspE (Solanum lycopersicum, UniProt P93841); assay: University of Hamburg photometric enzymatic inhibition assay LeIspE; type: biochemical, Lycopersicon esculentum; settings: read-out: LeIspE IC50
Method: as §1
The IspE assay conditions were very similar to the IspD assay in which the assay mixture was composed of 100 mM Tris hydrochloride at pH 8.0 with 10 mM MgCl2, 1 mM dithiothreitol, 2.5 mM potassium phosphoenol pyruvate, 2 mM ATP, 1 mM of 4-Diphosphocytidyl-2-C-methylerythritol, 460 μM NADH, 1.1% (v/v) DMSO, 2.4 mU IspE, 1 U lactate dehydrogenase, 1 U pyruvate kinase in 180 μL of solution. Solutions were incubated at 27° C. and monitored photometrically.

Chain of AtIspF (Q9CAK8 53-231): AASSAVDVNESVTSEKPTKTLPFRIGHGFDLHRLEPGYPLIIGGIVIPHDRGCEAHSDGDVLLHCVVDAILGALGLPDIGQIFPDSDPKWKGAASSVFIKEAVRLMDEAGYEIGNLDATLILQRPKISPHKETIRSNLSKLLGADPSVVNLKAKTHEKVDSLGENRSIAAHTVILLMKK
Chain of AtIspD (P69834 62-302): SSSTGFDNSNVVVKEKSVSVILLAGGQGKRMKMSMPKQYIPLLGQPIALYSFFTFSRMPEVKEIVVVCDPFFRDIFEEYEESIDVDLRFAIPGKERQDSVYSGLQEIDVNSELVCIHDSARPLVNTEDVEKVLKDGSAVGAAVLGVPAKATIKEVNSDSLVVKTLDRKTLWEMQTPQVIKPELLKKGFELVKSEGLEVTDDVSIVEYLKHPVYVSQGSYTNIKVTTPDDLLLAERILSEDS
Chain of Lycopersicon esculentum IspE (LeIspE) (P93841 89-401): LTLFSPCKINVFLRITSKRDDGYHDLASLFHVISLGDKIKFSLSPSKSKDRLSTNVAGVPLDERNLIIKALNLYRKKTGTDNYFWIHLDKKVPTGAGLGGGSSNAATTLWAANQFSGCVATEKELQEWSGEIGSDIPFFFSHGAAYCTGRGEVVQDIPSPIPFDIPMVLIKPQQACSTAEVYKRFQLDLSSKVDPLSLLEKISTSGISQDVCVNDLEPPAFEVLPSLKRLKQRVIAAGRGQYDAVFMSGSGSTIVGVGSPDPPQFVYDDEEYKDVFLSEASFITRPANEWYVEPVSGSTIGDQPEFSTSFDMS
Chain of LeIspE (P93841 89-401): as above

Row | Structure (SMILES) | ML score (Micrococcus luteus) | melting point [°C] | BC score (Bacillus cereus) | Bleaching (lettuce seeds; 0.15 mM) | Germination (lettuce seeds; 0.15 mM) | Root Dev. (lettuce seeds; 0.15 mM) | KP score (Klebsiella pneumonia) | MS score (Mycobacterium smegmatis) | IC50 (AtIspF) [µM] | IC50 (AtIspD) [µM] | CX score (Corynebacterium xerosis) | PA score (Pseudomonas aeruginosa) | LeIspE melting point change [1] [°C] | LeIspE melting temp [1] [°C] | CP score [2] | BT score [3] | EC score (Escherichia coli) | MtIspD melting point change [4] [°C] | MtIspD melting temp [4] [°C] | IC50 (LeIspE) [µM] | further results
1 | Clc1ccc(-c2nnc(-c3nc4ccccc4[nH]3)o2)cc1 [HGN-421, 2-(1H-benzo[d]imidazole-2-yl)-5-(4-chlorophenyl)-1,3,4-oxadiazole] | 0 | 250 to 255 | 0 | 0 | 1 | 0 | 0 | 1 | 484 ± 95 | 88 | 0 | 0 | −1.50 | 48.00 | 0 | 1 | 0 | 0.8 | 48.8 | 298 ± 49 | Bleaching (lettuce seeds; 0.3 mM): 0; Germination (lettuce seeds; 0.3 mM): 1; Root Dev. (lettuce seeds; 0.3 mM): 0; antibacterial activity against Mycobacterium smegmatis (Mycobacterium smegmatis): slight antibacterial activity; antibacterial activity against Burkholderia thailandensis [3]: slight antibacterial activity
2 | CCc1nnc(-c2cc3ccccc3[nH]2)o1 [HGN-250, 2-ethyl-5-(1H-indol-2-yl)-1,3,4-oxadiazole] | 0 | 138 to 143 | 0 | – | – | – | 0 | 0 | > 1000 | > 1000 | 0 | 0 | −2.75 | 46.75 | 0 | 0 | 0 | 0.8 | 48.8 | > 1000 | Bleaching (lettuce seeds; 0.5 mM): 0; Germination (lettuce seeds; 0.5 mM): 1; Root Dev. (lettuce seeds; 0.5 mM): 0; Bleaching (lettuce seeds; 1.0 mM): 0; Germination (lettuce seeds; 1.0 mM): 3; Root Dev. (lettuce seeds; 1.0 mM): 0
3 | FC(F)(F)c1ccc(-c2nnc(-c3nc4ccccc4[nH]3)o2)cc1 [HGN-422, 2-(1H-benzo[d]imidazol-2-yl)-5-(4-(trifluoromethyl)phenyl)-1,3,4-oxadiazole] | 0 | 275 to 280 | 0 | 0 | 0 | 0 | 0 | 1 | > 500 | 251 | 0 | 0 | −3.25 | 46.25 | 0 | 1 | 0 | 1.0 | 49.0 | 267 | Bleaching (lettuce seeds; 0.3 mM): 0; Germination (lettuce seeds; 0.3 mM): 0; Root Dev. (lettuce seeds; 0.3 mM): 0; antibacterial activity against Mycobacterium smegmatis (Mycobacterium smegmatis): slight antibacterial activity; antibacterial activity against Burkholderia thailandensis [3]: slight antibacterial activity
4 | c1ccc2[nH]c(-c3nnc(C4CCCCC4)o3)cc2c1 [HGN-254, 2-cyclohexyl-5-(1H-indol-2-yl)-1,3,4-oxadiazole] | 0 | 187 to 193 | 0 | 0 | 0 | 0 | 0 | 0 | > 1000 | 322 | 0 | 0 | −2.00 | 47.50 | 0 | 0 | 0 | 0.5 | 48.5 | > 1000 | Bleaching (lettuce seeds; 0.3 mM): 0; Germination (lettuce seeds; 0.3 mM): 0; Root Dev. (lettuce seeds; 0.3 mM): 0
5 | Clc1cccc(-c2nnc(-c3cc4ccccc4[nH]3)o2)c1 [HGN-241, 2-(3-chlorophenyl)-5-(1H-indol-2-yl)-1,3,4-oxadiazole] | 0 | 202 to 207 | 0 | – | – | – | 0 | 0 | > 1000 | > 1000 | 0 | 0 | −1.75 | 47.75 | 0 | 0 | 0 | 0.5 | 48.5 | 149 ± 41 | Bleaching (lettuce seeds; 0.2 mM): 0; Germination (lettuce seeds; 0.2 mM): 1; Root Dev. (lettuce seeds; 0.2 mM): 0
6 | Oc1c(Br)cc(Br)cc1-c1cc2ccccc2[nH]1 [HGN-340, 2,4-dibromo-6-(1H-indol-2-yl)phenol] | 0 | 104 to 110 | 2 | 0 | 0 | 0 | 0 | 0 | 470 ± 116 | 50 | 0 | 0 | 0.50 | 50.00 | 0 | 0 | 0 | 1.3 | 49.3 | > 500 | Bleaching (lettuce seeds; 0.3 mM): 0; Germination (lettuce seeds; 0.3 mM): 0; Root Dev. (lettuce seeds; 0.3 mM): 0; effectiveness against Pseudomonas aeruginosa (Pseudomonas aeruginosa): moderately effective
7 | FC(F)(F)c1ccc(-c2nnc(-c3nc4ccccc4s3)o2)cc1 [HGN-337, 2-(benzo[d]thiazol-2-yl)-5-(4-(trifluoromethyl)phenyl)-1,3,4-oxadiazole] | 0 | 145 to 148 | 0 | 0 | 0 | 0 | 0 | 0 | > 500 | > 500 | 0 | 0 | −1.75 | 47.75 | 0 | 0 | 0 | 0.8 | 48.8 | > 500 | Bleaching (lettuce seeds; 0.3 mM): 0; Germination (lettuce seeds; 0.3 mM): 0; Root Dev. (lettuce seeds; 0.3 mM): 0
